What was measured:
Lactoperoxidase = Lactoperoxidase (Bos taurus, UniProt P80025); assay: Lactoperoxidase (LPO) activity, spectrophotometric assay (ABTS); type: biochemical
Experimental: Lactoperoxidase is a member of the heme peroxidase family of enzymes that, together with a catalytic anion (such as I^−, derived from KI, present in the substrate), will catalyse the oxidation of H2O2, leading to hypojodite (IO^−). This hypojodite is a reactive oxygen species (ROS). To measure the enzymatic activity of LPO, a standard spectrophotometric assay is performed. In brief, H2O2 combined with 2,2′-azino-bis (3-ethylbenzothiazoline-6-sulfonzuur (ABTS) is catalysed by LPO so that the formation of a coloured compound is achieved that can in turn be measured by spectrophotometry. LPO was tested in 3 different concentrations, i.e., 50, 10 and 1 mg/ml. Each reaction mixture was tested in duplo. In the event LPO activity was evaluated in the presence of a potentiator candidate (=a molecule that might be able to augment the enzymatic activity of LPO), the latter was added in a low and high concentration ranging from 100 to 0.1 mg/ml. The blank consisted of the reaction mix in which H2O2 was absent. The absorbance was immediately measured with a plate reader (Spectramax ID3, Molecular Devices) every 12 seconds for 5 minutes at 20° C. For each combination evaluated, this test was repeated at least 2 times. Results were further analysed in MS Excel and expressed as U/g. Mean blank-corrected data±SD were plotted. Statistical significance compared to the combination without potentiator candidate (reference) was calculated using students' t-tests. Significance is achieved when the obtained p-value is lower than 0,05. Significance levels were defined as p<0.05=*; p<0.01=** and p<0.001=***.

[1] = system: Aspergillus niger ATCC®16404™; assay: MIC determination, broth microdilution, GOX+LPO with potentiator candidate; type: cell-based; conditions: A. niger
Experimental: (§1) The minimum inhibitory concentration (MIC) is defined as the lowest concentration of an antimicrobial agent that results in a complete inhibition of microbial growth (determined via visual evaluation or absorbance measurements) after overnight incubation. This endpoint measurement is used to define the microbial susceptibility towards an antimicrobial agent. Here, the antimicrobial agent is a combination of the natural enzymes GOX+LPO.
(§2) To determine the MIC of the described combinations, a classical broth microdilution assay was used to determine the susceptibility of a series of microbes commonly detected in infected wounds, including (a) the Gram-positive bacterium Staphylococcus aureus ATCC® 6538™ (results shown below), (b) the Gram-negative bacterium Pseudomonas aeruginosa ATCC®9027™ (results shown below), (c) the yeast Candida albicans ATCC®10231™ (results shown below), and (d) the fungus Aspergillus niger ATCC®16404™ (results shown below). In brief, a […] serial dilution of the enzymatic GOX+LPO solution was prepared in a transparent, flat-bottomed 96-well test plate with final concentrations ranging from 0.005 to 0.00000977% (v/v). To each well, a fixed volume of the enzymatic substrate containing 3,3% (w/v) glucose and 0,084% (w/v) potassium iodide, as well as the microbial inoculum with an OD600 of 0.1 was added. In the event the enzyme combination was evaluated in the presence of a potentiator candidate, the latter was added together with the enzymatic substrate in a final concentration ranging from 100 to 0,00125% (v/v). For each combination evaluated, a blank (no addition of microbial inoculum) was included. Positive (inoculum only) and negative (background solution only) were included to evaluate the performance of the test and to select the enzymatic GOX+LPO concentration at which no microbial growth is detected (i.e., absorbance equal to that of the background solution only). Then, the 96-well test plate was incubated for 24 hours at 37° C. (S. aureus, P. aeruginosa and C. albicans) or 25° C. (A. niger). After incubation, the absorbance of each well was measured using a plate spectrophotometer (Spectramax ID3, Molecular Devices). For each combination evaluated, this test was repeated at least 5 times. The collected data were further analyzed in MS Excel. Mean absorbance data were visualized in a table format in which the MIC was highlighted.

[2] = system: Pseudomonas aeruginosa ATCC®9027™; assay: as above; type: cell-based; conditions: P. aeruginosa
Experimental: as §1, §2

[3] = system: Staphylococcus aureus ATCC® 6538™; assay: as above; type: cell-based; conditions: S. aureus
Experimental: as §1, §2

[4] = system: Aspergillus niger ATCC®16404™; assay: Absolute microbial counts in function of enzyme solution concentration; type: cell-based; conditions: 0.005%-0.000156% (v/v) GOX+LPO
Excerpt: (§3) Absolute microbial counts in function of concentration of the antimicrobial agent tested are useful to monitor the bactericidal and fungicidal efficacy of that agent.
(§4) To determine the absolute number of live microorganisms in function of different enzyme solution concentrations tested, a classical broth microdilution assay combined with standard CFU enumeration techniques was used to determine the susceptibility of a series of microbes commonly detected in infected wounds, including (a) the Gram-positive bacterium Staphylococcus aureus ATCC® 6538™ (results shown below), (b) the Gram-negative bacterium Pseudomonas aeruginosa ATCC®9027™ (results shown below), (c) the yeast Candida albicans ATCC®10231™ (results shown below), and (d) the fungus Aspergillus niger ATCC®16404™ (results shown below). In brief, the broth microdilution assay was set up as previously described (see 2.1). After incubation, the absolute microbial count at the MIC and following higher concentrations (MICx2, MICx4, and so on) was determined using standard CFU enumeration techniques. For each combination evaluated, this test was repeated at least 5 times. The collected data were further analyzed in MS Excel and expressed as log CFU/ml. Mean results were plotted in function of enzyme solution concentration.

[5] = system: Pseudomonas aeruginosa ATCC®9027™; assay: as above; type: cell-based; conditions: for reduction in absolute P. aeruginosa counts compared to reference and guaiacol solution: 0.005%-0.0000391% (v/v) GOX+LPO
Excerpt: as §3, §4

[6] = enhancer 0,1%, 0,005%-0.000625% (v/v) GOX+LPO
[7] = enhancer 1%, 0,005%-0.000156% (v/v) GOX+LPO

| SMILES | LPO activity compared to reference (Lactoperoxidase; enhancer 0.1 mg/ml) | LPO activity compared to reference (Lactoperoxidase; enhancer 1 mg/ml) | MIC: GOX+LPO enzyme solution needed to completely inhibit growth ([2]; enhancer 0,1%) | increase in MIC compared to reference ([2]; enhancer 0,1%) | MIC: GOX+LPO enzyme solution needed to completely inhibit growth ([2]; enhancer 1%) | increase in MIC compared to reference ([2]; enhancer 1%) | reduction in absolute P. aeruginosa counts compared to reference [5, 6] | reduction in absolute P. aeruginosa counts compared to reference [5, 7] | MIC: GOX+LPO enzyme solution needed to completely inhibit growth ([1]; enhancer 1%-0.01%) | increase in MIC compared to reference ([1]; enhancer 1%-0.01%) | reduction in absolute A. niger counts compared to reference ([4]; enhancer 1-0.01%) | MIC: GOX+LPO enzyme solution needed to completely inhibit growth ([3]; enhancer 0.0025% to 0.00125%) | increase in MIC compared to reference or guaiacol solution ([3]; enhancer 0.0025% to 0.00125%) | MIC: GOX+LPO enzyme solution needed to completely inhibit growth ([2]; enhancer 0.0025-0.00125%) | increase in MIC compared to reference or guaiacol solution ([2]; enhancer 0.0025-0.00125%) | MIC: GOX+LPO enzyme solution needed to completely inhibit growth ([2]; enhancer 0.01-0.005%) | increase in MIC compared to reference or guaiacol solution ([2]; enhancer 0.01-0.005%) | MIC: GOX+LPO enzyme solution needed to completely inhibit growth ([3]; enhancer 0.01%) | increase in MIC compared to reference or guaiacol solution ([3]; enhancer 0.01%) | MIC: GOX+LPO enzyme solution needed to completely inhibit growth ([3]; enhancer 10%) | also measured |
| --- | --- | --- | --- | --- | --- | --- | --- | --- | --- | --- | --- | --- | --- | --- | --- | --- | --- | --- | --- | --- | --- |
| NC(=O)CC[C@H](N)C(=O)O [Glutamine, glutamine] | significant increase | significant increase | 0.000625 % (v/v) | 2 × | 0.000156 % (v/v) | 8 × | stronger reduction | stronger reduction | 0.000156 % (v/v) | 2 × | stronger reduction |  |  |  |  |  |  |  |  |  | MIC: GOX+LPO enzyme solution needed to completely inhibit growth ([3]; enhancer 1% to 0.01%): 0.0000391 % (v/v); increase in MIC compared to reference or guaiacol solution ([3]; enhancer 1% to 0.01%): 2 × |
| O=C(O)[C@@H]1CCCN1 [Proline, proline] |  |  |  |  |  |  |  |  | 0.000156 % (v/v) | 2 × | stronger reduction |  |  | 0.000625 % (v/v) | 2 × | 0.000625 % (v/v) | 2 × | 0.0000195 % (v/v) | 4 × | 0.0000391 % (v/v) | increase in MIC compared to reference or guaiacol solution ([3]; enhancer 10%): 2 ×; reduction in absolute P. aeruginosa counts compared to reference and guaiacol solution ([5]; enhancer 0.0025-0.00125%): stronger reduction; reduction in absolute P. aeruginosa counts compared to reference and guaiacol solution ([5]; enhancer 0.01-0.001%): stronger reduction |
| N[C@@H](CO)C(=O)O [Serine, serine] |  |  |  |  |  |  |  |  | 0.000156 % (v/v) | 2 × | stronger reduction | 0.0000391 % (v/v) | 2 × | 0.000625 % (v/v) | 2 × | 0.000625 % (v/v) | 2 × |  |  | ≤ 0.0000977 % (v/v) | LPO activity compared to reference (Lactoperoxidase; enhancer 100 mg/ml, reference = no potentiator candidate): significant increase; MIC: GOX+LPO enzyme solution needed to completely inhibit growth ([3]; enhancer 0.01% to 0.005%): 0.0000391 % (v/v); increase in MIC compared to reference or guaiacol solution ([3]; enhancer 0.01% to 0.005%): 2 ×; increase in MIC compared to reference or guaiacol solution ([3]; enhancer 10%): ≥ 6 ×; reduction in absolute P. aeruginosa counts compared to reference and guaiacol solution ([5]; enhancer 0.0025-0.00125%): stronger reduction; reduction in absolute P. aeruginosa counts compared to reference and guaiacol solution ([5]; enhancer 0.01-0.005%): stronger reduction |

Continued, in another order:

| LPO activity compared to reference (Lactoperoxidase; enhancer 0.1 mg/ml) | LPO activity compared to reference (Lactoperoxidase; enhancer 1 mg/ml) | MIC: GOX+LPO enzyme solution needed to completely inhibit growth ([2]; enhancer 0,1%) | increase in MIC compared to reference ([2]; enhancer 0,1%) | MIC: GOX+LPO enzyme solution needed to completely inhibit growth ([2]; enhancer 1%) | increase in MIC compared to reference ([2]; enhancer 1%) | reduction in absolute P. aeruginosa counts compared to reference [5, 6] | reduction in absolute P. aeruginosa counts compared to reference [5, 7] | SMILES | MIC: GOX+LPO enzyme solution needed to completely inhibit growth ([1]; enhancer 1%-0.01%) | increase in MIC compared to reference ([1]; enhancer 1%-0.01%) | reduction in absolute A. niger counts compared to reference ([4]; enhancer 1-0.01%) | MIC: GOX+LPO enzyme solution needed to completely inhibit growth ([3]; enhancer 0.0025% to 0.00125%) | increase in MIC compared to reference or guaiacol solution ([3]; enhancer 0.0025% to 0.00125%) | MIC: GOX+LPO enzyme solution needed to completely inhibit growth ([2]; enhancer 0.0025-0.00125%) | increase in MIC compared to reference or guaiacol solution ([2]; enhancer 0.0025-0.00125%) | MIC: GOX+LPO enzyme solution needed to completely inhibit growth ([2]; enhancer 0.01-0.005%) | increase in MIC compared to reference or guaiacol solution ([2]; enhancer 0.01-0.005%) | MIC: GOX+LPO enzyme solution needed to completely inhibit growth ([3]; enhancer 0.01%) | increase in MIC compared to reference or guaiacol solution ([3]; enhancer 0.01%) | MIC: GOX+LPO enzyme solution needed to completely inhibit growth ([3]; enhancer 10%) | also measured |
| --- | --- | --- | --- | --- | --- | --- | --- | --- | --- | --- | --- | --- | --- | --- | --- | --- | --- | --- | --- | --- | --- |
| significant increase | significant increase | 0.000625 % (v/v) | 2 × | 0.000156 % (v/v) | 8 × | stronger reduction | stronger reduction | NC(=O)C[C@H](N)C(=O)O [Asparagine, asparagine] |  |  |  |  |  |  |  |  |  |  |  |  | MIC: GOX+LPO enzyme solution needed to completely inhibit growth ([1]; enhancer 1%-0.05%): 0.000156 % (v/v); increase in MIC compared to reference ([1]; enhancer 1%-0.05%): 2 ×; MIC: GOX+LPO enzyme solution needed to completely inhibit growth ([3]; enhancer 0.5% to 0.01%): 0.0000391 % (v/v); increase in MIC compared to reference or guaiacol solution ([3]; enhancer 0.5% to 0.01%): 2 ×; reduction in absolute A. niger counts compared to reference ([4]; enhancer 1-0.05%): stronger reduction |
|  |  | 0.000625 % (v/v) | 2 × | 0.000156 % (v/v) | 8 × | stronger reduction | stronger reduction | CC[C@H](C)[C@H](N)C(=O)O [Isoleucine, isoleucine] |  |  |  | 0.0000391 % (v/v) | 2 × |  |  |  |  |  |  |  | MIC: GOX+LPO enzyme solution needed to completely inhibit growth ([1]; enhancer 1%-0.005%): 0.000156 % (v/v); increase in MIC compared to reference ([1]; enhancer 1%-0.005%): 2 ×; MIC: GOX+LPO enzyme solution needed to completely inhibit growth ([3]; enhancer 0.5% to 0.005%): 0.0000391 % (v/v); increase in MIC compared to reference or guaiacol solution ([3]; enhancer 0.5% to 0.005%): 2 ×; reduction in absolute A. niger counts compared to reference ([4]; enhancer 1-0.005%): stronger reduction |
| significant increase | significant increase | 0.000625 % (v/v) | 2 × | 0.000156 % (v/v) | 8 × | stronger reduction | stronger reduction | C[C@@H](O)[C@H](N)C(=O)O [Threonine, threonine] | 0.000156 % (v/v) | 2 × | stronger reduction |  |  |  |  |  |  | 0.0000391 % (v/v) | 2 × |  | MIC: GOX+LPO enzyme solution needed to completely inhibit growth ([3]; enhancer 2%): 0.0000195 % (v/v); increase in MIC compared to reference or guaiacol solution ([3]; enhancer 2%): 4 × |

From US20260273028A1, “PEROXIDASE COMPOSITIONS CONTAINING IMPROVED ENHANCING AGENTS” (FLEN HEALTH PHARMA NV, priority 2022, published 2026)
